Data from US12459921B2, “Isoindoline compound, preparation method, pharmaceutical composition and use thereof” (SHANGHAI INSTITUTE OF MATERIA MEDICA, CHINESE ACADEMY OF …, priority 2018, dated 2025).

Test system: MM.1S cells
Experiment: Inhibitory effect on the proliferation of MM.1S, MTS cell viability test
Type: cell-based
Settings: Homo sapiens, MM1.S, 168 h, multiple myeloma MM.1S cells, 7 days incubation, read-out: Tumor cell inhibitory activity
Method in brief: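 Viability measured by MTS (OD490 minus OD690 background, 3-4 h) after a 7-day exposure of 20,000 MM.1S cells/well to 5-fold serially diluted compound, 0.2% DMSO final. Inhibition calculated relative to DMSO wells; IC50 curve-fitted, averaged over three repeats.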

Row | Structure (SMILES) | IC50 [nM]
1 | CC(=O)N[C@@H](CCCc1cccc2c1CN(C1CCC(=O)NC1=O)C2=O)C(=O)Nc1ccccc1-c1cccnc1 (stereo partly drawn) [Example 196, (2S)-2-acetylamino-5-(2-(2,6-dioxopiperidine-3-)-1-oxoisoindoline-4-)-N-(2-(pyridine-3-)phenyl)pentanamide] | 1000 to 20000
2 | CC(=O)N[C@@H](CCCc1cccc2c1CN(C1CCC(=O)NC1=O)C2=O)C(=O)NC12CC3CC(CC(C3)C1)C2 (stereo partly drawn) [Example 198, (2S)-2-acetylamino-N-((3R,5R,7R)-adamantane-1-)-5-(2-(2,6-dioxopiperidine-3-)-1-oxoisoindoline-4-)pentanamide] | < 100
3 | N[C@@H](CCCc1cccc2c1CN(C1CCC(=O)NC1=O)C2=O)c1nc2ccccc2[nH]1 (stereo partly drawn) [Example 199, 3-(4-((S)-4-amino-4-(1H-benzo(d)imidazole-2-)butyl)-1-oxoisoindoline-2-)piperidine-2,6-dione] | > 20000
4 | N[C@@H](CCCc1cccc2c1CN(C1CCC(=O)NC1=O)C2=O)c1nc2ccncc2[nH]1 (stereo partly drawn) [Example 201, 3-(4-((S)-4-amino-4-(3H-imidazole[4,5-c]pyridine-2-)butyl)-1-oxoindoline-2-)piperidine-2,6-dione] | > 20000
5 | CC(=O)N[C@@H](CCCc1cccc2c1CN(C1CCC(=O)NC1=O)C2=O)C(=O)N(C)Cc1ccccc1 (stereo partly drawn) [Example 204, (2S)-2-acetylamino-N-benzyl-5-(2-(2,6-oxopiperidine-3-)-1-oxoisoindoline-4-)-N-methylpentanamide] | 1000 to 20000
6 | CCC(=O)N[C@@H](CCCc1cccc2c1CN(C1CCC(=O)NC1=O)C2=O)C(=O)NCc1ccccc1 (stereo partly drawn) [Example 206, (2S)—N-benzyl-5-(2-(2,6-dioxopiperidine-3-)-1-oxoisoindoline-4-)-2-propionamidopentaneamide] | < 100
7 | CC(=O)N[C@@H](CCCc1cccc2c1CN(C1CCC(=O)NC1=O)C2=O)C(=O)N1CCC2(CC1)OCc1ccccc12 (stereo partly drawn) [Example 207, N-((2S)-5-(2-(2,6-dioxopiperidine-3-)-1-oxoisoindoline-4-)-1-oxo-1-(3H-spiro[isobenzofuran-1,4′-piperidine]-1′-)pentyl-2-)acetamide] | 100 to 1000
8 | [2H]c1c([2H])c([2H])c(N2CCN(CCCCc3cccc4c3CN(C3CCC(=O)NC3=O)C4=O)CC2)c([2H])c1[2H] (stereo not shown) [Example 208, 3-(1-oxo-4-(4-(4-(phenyl-d5)piperazine-1-)butyl)isoindoline-2-)piperidine-2,6-dione] | 100 to 1000
9 | O=C1CCC(N2Cc3c(OCCCCOc4ccnc5ccccc45)cc(F)cc3C2=O)C(=O)N1 (stereo not shown) [Example 211, 3-(6-fluoro-1-oxy-4-(4-(quinoline-4-oxy)butoxy)-1-oxoisoindoline-2-)piperidine-2,6-dione] | < 100
10 | Cc1cc(OCCCCOc2cc(F)cc3c2CN(C2CCC(=O)NC2=O)C3=O)c2ccccc2n1 (stereo not shown) [Example 212, 3-(6-fluoro-4-(4-((2-methylquinoline-4-)oxy)butoxy)-1-oxoisoindoline-2-)piperidine-2,6-dione] | < 100
11 | Cc1cc(COCCCCOc2cccc3c2CN(C2CCC(=O)NC2=O)C3=O)c2ccccc2n1 (stereo not shown) [Example 213, 3-(4-(4-((2-methylquinoline-4-)methoxy)butoxy)-1-oxoisoindoline-2-)piperidine-2,6-dione] | 100 to 1000
12 | CCc1cc(COCCCCOc2cccc3c2CN(C2CCC(=O)NC2=O)C3=O)c2ccccc2n1 (stereo not shown) [Example 214, 3-(4-(4-((2-ethylquinoline-4-)methoxy)butoxy)-1-oxoisoindoline-2-)piperidine-2,6-dione] | 100 to 1000
13 | O=C1CCC(N2Cc3c(CCCCN4CCN(c5ccccc5F)CC4)cccc3C2=O)C(=O)N1 (stereo not shown) [Example 218, 3-(4-(4-(4-(2-fluorophenyl)piperazine-1-yl)butyl)-1-oxoisoindoline-2-yl)piperidine-2,6-dione] | < 100
14 | O=C1CCC(N2Cc3c(CCCCN4CCN(c5ccc(Cl)cc5Cl)CC4)cccc3C2=O)C(=O)N1 (stereo not shown) [Example 222, 3-(4-(4-(4-(2,4-dichlorophenyl)piperazine-1-yl)butyl)-1-oxoisoindoline-2-yl)piperidine-2,6-dione] | < 100
15 | COc1ccccc1N1CCN(CCCCc2cccc3c2CN(C2CCC(=O)NC2=O)C3=O)CC1 (stereo not shown) [Example 224, 3-(4-(4-(4-(2-methoxyphenyl)piperazine-1-yl)butyl)-1-isoindoline-2-yl)piperidine-2,6-dione] | < 100
16 | O=C1CCC(N2Cc3c(CCCCCN4CCN(c5cccc6ccsc56)CC4)cccc3C2=O)C(=O)N1 (stereo not shown) [Example 225, 3-(4-(5-(4-(benzothiophene-7-yl)piperazin-1-yl)pentyl)-1-oxoisoindoline-2-yl)piperidine-2,6-dione] | 1000 to 20000
17 | O=C1CCC(N2Cc3c(CCCCN4CCN(c5noc6ccccc56)CC4)cccc3C2=O)C(=O)N1 (stereo not shown) [Example 228, 3-(4-(4-(4-(benzisoxazole-3-yl)piperazine-1-yl)butyl)-1-oxoisoindoline-2-yl)piperidine-2,6-dione] | 1000 to 20000
18 | O=C1CCC(N2Cc3c(CCCCN4CCN(c5cc(Cl)ccc5Cl)CC4)cccc3C2=O)C(=O)N1 (stereo not shown) [Example 229, 3-(4-(4-(4-(2,5-dichlorophenyl)piperazine-1-yl)butyl)-1-oxoisoindoline-2-yl) piperidine-2,6-dione] | 100 to 1000

Next, values leading:

Row | IC50 [nM] | Structure (SMILES)
19 | 100 to 1000 | CC(=O)N[C@@H](CCCc1cccc2c1CN(C1CCC(=O)NC1=O)C2=O)C(=O)Nc1ccccc1-c1ccccn1 (stereo partly drawn) [Example 194, (2S)-2-acetylamino-5-(2-(2,6-dioxopiperidine-3-)-1-oxoisoindoline-4-)-N-(2-(pyridine-2-)phenyl)pentanamide]
20 | 100 to 1000 | CC(=O)N[C@@H](CCCc1cccc2c1CN(C1CCC(=O)NC1=O)C2=O)c1nc2cccc(Br)c2[nH]1 (stereo partly drawn) [Example 197, N-((1S)-1-(7-bromo-1H-benzo[d]imidazole-2-)-4-(2-(2,6-dioxopiperidine-3-)-1-oxoisoindoline-4-)butyl)acetamide]
21 | 100 to 1000 | CC(=O)N[C@@H](CCCc1cccc2c1CN(C1CCC(=O)NC1=O)C2=O)C(=O)NC1C2CC3CC(C2)CC1C3 (stereo partly drawn) [Example 200, (2S)-2-acetylamino-N-((1S,3S,5S,7 S)-adamantane-2-)-5-(2-(2,6-dioxopiperidine-3-)-1-oxoisoindoline-4-)pentanamide]
22 | < 100 | CC(=O)N[C@@H](CCCc1cccc2c1CN(C1CCC(=O)NC1=O)C2=O)C(=O)Nc1ccc(C)c(Cl)c1 (stereo partly drawn) [Example 202, (2S)-2-acetylamino-N-(3-chloro-4-methylphenyl)-5-(2-(2,6-dioxopiperidine-3-)-1-oxoisoindoline-4-)pentanamide]
23 | 100 to 1000 | CC(=O)N[C@@H](CCCc1cccc2c1CN(C1CCC(=O)NC1=O)C2=O)c1nc2ccccc2[nH]1 (stereo partly drawn) [Example 203, N-((1S)-1-(1H-benzo[d]imidazole-2-)-4-(2-(2,6-dioxopiperidine-3-)-1-oxoisoindoline-4-)butyl)amide]
24 | > 20000 | CC(=O)N[C@@H](CCCc1cccc2c1CN(C1CCC(=O)NC1=O)C2=O)c1nc2ccncc2[nH]1 (stereo partly drawn) [Example 205, N-((1S)-4-(2-(2,6-dioxopiperidine-3-)-1-oxoisoindoline-4-)-1-(3H-imidazole[4,5-c]pyridine-2-)butyl)acetamide]
25 | < 100 | [2H]c1c([2H])c([2H])c(N2CCN(CCCCCCc3cccc4c3CN(C3CCC(=O)NC3=O)C4=O)CC2)c([2H])c1[2H] (stereo not shown) [Example 209, 3-(1-oxo-4-(6-(4-(phenyl-d5)piperazine-1-)hexyl)isoindoline-2-)piperidine-2,6-dione]
26 | 100 to 1000 | [2H]c1c([2H])c([2H])c(N2CCN(CCCCCc3cccc4c3CN(C3CCC(=O)NC3=O)C4=O)CC2)c([2H])c1[2H] (stereo not shown) [Example 210]
27 | < 100 | O=C1CCC(N2Cc3c(CCCCN4CCN(c5ccccc5Cl)CC4)cccc3C2=O)C(=O)N1 (stereo not shown) [Example 215, 3-(4-(4-(4-(2-chlorophenyl)piperazine-1-yl)butyl)-1-oxoisoindoline-2-yl) piperidine-2,6-dione]
28 | < 100 | O=C1CCC(N2Cc3c(CCCCN4CCN(c5ccccc5[N+](=O)[O-])CC4)cccc3C2=O)C(=O)N1 (stereo not shown) [Example 216, 3-(4-(4-(4-(2-nitrophenyl)piperazine-1-yl)butyl)-1-oxoisoindoline-2-yl) piperidine-2,6-dione]
29 | < 100 | Cc1ccccc1N1CCN(CCCCc2cccc3c2CN(C2CCC(=O)NC2=O)C3=O)CC1 (stereo not shown) [Example 217, 3-(1-oxo-4-(4-(4-(o-tolyl)piperazine-1-yl)butyl)isoindoline-2-yl)piperidine-2,6-dione]
30 | < 100 | O=C1CCC(N2Cc3c(CCCCN4CCN(c5ccccc5C(F)(F)F)CC4)cccc3C2=O)C(=O)N1 (stereo not shown) [Example 219, 3-(1-oxo-4-(4-(4-(2-(trifluoromethyl)phenyl)piperazine-1-yl)butyl)isoindoline-2-yl)piperidine-2,6-dione]
31 | < 100 | O=C1CCC(N2Cc3c(CCCCN4CCN(c5cccc(C(F)(F)F)c5)CC4)cccc3C2=O)C(=O)N1 (stereo not shown) [Example 220, 3-(1-oxo-4-(4-(4-(3-(trifluoromethyl)phenyl)piperazine-1-yl)butyl)isoindoline-2-yl)piperidine-2,6-dione]
32 | < 100 | O=C1CCC(N2Cc3c(CCCCN4CCN(c5cc(Cl)cc(Cl)c5)CC4)cccc3C2=O)C(=O)N1 (stereo not shown) [Example 223, 3-(4-(4-(4-(3,5-dichlorophenyl)piperazine-1-yl)butyl)-1-oxoisoindoline-2-yl) piperidine-2,6-dione]
33 | 1000 to 20000 | O=C1CCC(N2Cc3c(CCCCN4CCC(c5noc6cc(F)ccc56)CC4)cccc3C2=O)C(=O)N1 (stereo not shown) [Example 227, 3-(4-(4-(4-(6-fluorobenzisoxazole-3-yl)piperidin-1-yl)butyl)-1-oxoisoindoline-2-yl)piperidine-2,6-dione]
34 | 1000 to 20000 | O=C1CCC(N2Cc3c(CCCCN4CCN(c5nsc6ccccc56)CC4)cccc3C2=O)C(=O)N1 (stereo not shown) [Example 230, 3-(4-(4-(4-(benzisothiazol-3-yl)piperazine-1-yl)butyl)-1-oxoisoindoline-2-yl) piperidine-2,6-dione]
